Positions of bridges follow the written chain, without caps; N, C: chain ends. Residues, ends and D or L forms follow the SMILES beside them. Chains are numbered I, II in the order given. No end group written: not given here.
Assay: GUV image analysis, shape descriptors (light sheet fluorescence microscopy)
Settings: [(treated GUVs − control GUVs)/control GUVs]*100
Source text: GUVs appear dark against the background as a consequence of the difference in refractive index of GUVs contents (sucrose solution) and the surrounding medium (glucose solution). A white halo appears around the vesicle. Formation of pores and of protuberances may be thus evidenced. GUVs appear under differential interference contrast (DIC) round shaped with an average smaller area compared to GUVs treated with gH625 (Table 5, Figure 8). […] The addition of gH625-H7 to GUVs produced a similar effect of gH625 with the only difference that it induces an enhancement of the GUVs fusion tendency (Figure 8). gH625 and gH625-H7 enhance the mean area and perimeter of GUVs (Figure 9A,C). […] Main shape descriptor analysis confirms that the addition of gH625 or gH625-H7 induces an increase in area and perimeter also indicating a decrease in circularity and roundness parameters (Table 5).
LUVs and SUVs for fluorescence,circular dichroism and surface plasmon resonance, consisting of DOPG, DOPG/Chol (60/40 mol/mol), DOPC/Chol (60/40 mol/mol), and when necessary containing Rho-PE and NBD-PE, or ANTS and DPX, were prepared in 5 mM HEPES, 100 mM NaCl, pH 7.4[66]. Aliquots containing the necessary amount of lipids were dried from a chloroform solution with a nitrogen gas stream and lyophilized overnight to produce dry lipid films which were then resuspended in buffer and vortexed for 1 h; the lipid suspension was freeze-thawed 6 times to obtain multilamellar vesicles (MLV). […] Lipid concentrations of liposome suspensions were determined by phosphate analysis. […]
GUVs were used upon one day from preparation. Ten microliters of fluorescent GUVs were analyzed (before and after the addition of gH625 or gH625-H7) under a custom made light sheet fluorescent microscope equipped with five laser lines (λ = 375 nm Coherent Cube, λ = 405 nm Coherent Cube, λ = 473 nm Laserworld Blue-200, λ = 532 nm Coherent Compass 215 M-10 DPSS laser and λ = 632.8 nm Thorlabs HRR005S Helium-Neon laser), a motorized microscope MS-2000 XY stage with LX-4000 controller (Applied Scientific Instrumentation), a Focus Drive motorized Z stage (Tofra Inc.) and Nano-F200S nanopositioner controlled by Nanodrive® controller (Mad City Labs); all devices were managed by MicroManager software. […] The emerging fluorescence was detected by the Orca flash 2.8 sCMOS camera (Hamamatsu) driven by Dalsa Xcelera (Teledyne DALSA) PCIe card mounted on AMD FX-8 core 3.5 GHz, 32 Gb RAM pc running Windows 8.1 (Microsoft). […] GUV parameters were calculated by the Analyze particles ImageJ plugin; a minimum size of 5 μm^2 and circularity of at least […] Circularity=4π×[Area]/[Perimeter]^2 with a value of 1.0 indicating a perfect circle) was considered. […]

Compound | Var % circularity versus GUVs alone | Var % roundness versus GUVs alone
I: HGLASTLTRWAHYNALIRAFGCGKKKK-NH2 / II: HGLASTLTRWAHYNALIRAFGCGKKKK-NH2 (disulfide I:22-II:22) [gH625-H7] | −33.33% | −18.18%
CC[C@H](C)[C@H](NC(=O)[C@H](CC(C)C)NC(=O)[C@H](C)NC(=O)[C@H](CC(N)=O)NC(=O)[C@H](Cc1ccc(O)cc1)NC(=O)[C@H](Cc1c[nH]cn1)NC(=O)[C@H](C)NC(=O)[C@H](Cc1c[nH]c2ccccc12)NC(=O)[C@H](CCCNC(=N)N)NC(=O)[C@@H](NC(=O)[C@H](CC(C)C)NC(=O)[C@@H](NC(=O)[C@H](CO)NC(=O)[C@H](C)NC(=O)[C@H](CC(C)C)NC(=O)CNC(=O)[C@@H](N)Cc1c[nH]cn1)[C@@H](C)O)[C@@H](C)O)C(=O)N[C@@H](CCCNC(=N)N)C(=O)N[C@@H](C)C(=O)N[C@@H](Cc1ccccc1)C(N)=O [gH625] (H-HGLASTLTRWAHYNALIRAF-NH2) | −8.33% | −10.60%
